This passage reports IC50 results from BindingDB's records for patent US12065430 (Taiho Pharmaceutical, 2024).

The experiment concerns the target T1, Son of sevenless homolog 1 [564-1049]/GTPase KRas [G12C] (UniProt P01116+Q07889, G12C).
T1 construct: 564-1049
Kind of experiment: Evaluation of Inhibitory Activity of Compounds on KRAS G12C Nucleotide (GDP-GTP) Exchange Reaction. As to the method: The inhibitory activity of compounds on exchange reaction of GDP into GppNHp in Bodipy (trademark) FL-bound KRAS G12C was examined by fluorescence measurement using human recombinant KRAS G12C and SOS1 proteins.For the preparation of KRAS G12C to which Bodipy FL GDP was bound, first, […] KRAS G12C (amino acid region: 1-169) and 1 mM Bodipy FL GDP (Invitrogen, G22360) were incubated for 1 hour in a buffer (20 mM Tris-HCl (pH 7.5), 50 mM NaCl, 1 mM DTT) in ice in the presence of 2.5 mM EDTA. Thereafter, MgCl2 with a final concentration of 10 mM was added, and the mixture was incubated at room temperature for 30 minutes. The protein was allowed to pass through a NAP-5 column to remove free nucleotides and was used for compound evaluation.For the measurement of the inhibitory activity of compounds on nucleotide exchange reaction, first, the compound of the present invention was diluted stepwise with dimethyl sulfoxide (DMSO). Subsequently, a solution of the gradually diluted compound of the present invention in DMSO (the final concentration of DMSO: 5%) and KRAS G12C (25 nM) bound to Bodipy FL GDP were added to a reaction buffer (20 mM Tris-HCl (pH 7.5), 100 mM NaCl, 1 mM MgCl2, 2 mM DTT, 0.1% Tween20), followed by preincubation at 25° C. for 4 hours. Thereafter, Son of Sevenless Homolog 1 (SOS1, amino acid region: 564-1049) and GppNHp (GMPPNP, Jena Bioscience GmbH, NU-401-50) were added such that their final concentration was 100 nM and 1 μM respectively, followed by reaction for 30 minutes. The change in fluorescence intensity of Bodipy FL (excitation wavelength: 485 nm, fluorescence wavelength: 520 nm) immediately after the start of reaction and after 30 minutes from the start of reaction was standardized. The signal value for only DMSO was determined to be 0% inhibition, and the signal value for no addition of GppNHp was determined to be 100% inhibition. The compound concentration at which 50% inhibition is achieved was determined to be IC50 (nM), and was calculated.

The IC50 is the concentration that gives 50% inhibition. A lower IC50 goes with greater potency in that assay.

Molecules are shown by their SMILES.

T1 sequence (P01116 whole entry G12C): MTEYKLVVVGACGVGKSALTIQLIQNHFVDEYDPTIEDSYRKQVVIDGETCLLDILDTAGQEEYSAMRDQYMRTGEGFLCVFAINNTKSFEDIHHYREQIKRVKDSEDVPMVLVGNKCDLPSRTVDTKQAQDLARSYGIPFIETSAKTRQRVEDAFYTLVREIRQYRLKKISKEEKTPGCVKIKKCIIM
T1 sequence (Q07889 564-1049): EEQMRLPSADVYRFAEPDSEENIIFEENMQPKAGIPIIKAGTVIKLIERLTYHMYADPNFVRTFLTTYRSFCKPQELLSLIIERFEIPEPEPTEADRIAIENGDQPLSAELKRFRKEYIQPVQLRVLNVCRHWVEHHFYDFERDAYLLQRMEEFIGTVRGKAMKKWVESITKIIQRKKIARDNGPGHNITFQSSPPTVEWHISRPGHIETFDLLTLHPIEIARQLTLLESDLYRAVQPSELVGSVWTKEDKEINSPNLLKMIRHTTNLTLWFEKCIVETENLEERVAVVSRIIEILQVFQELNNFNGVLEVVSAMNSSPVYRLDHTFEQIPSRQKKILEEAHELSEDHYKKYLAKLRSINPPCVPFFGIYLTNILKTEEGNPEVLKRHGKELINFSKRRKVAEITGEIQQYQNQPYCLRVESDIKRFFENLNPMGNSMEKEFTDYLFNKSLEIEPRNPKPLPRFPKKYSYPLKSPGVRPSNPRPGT

Take `C=CC(=O)N1CC(NC(=O)c2c(Cl)nc(CNc3n[nH]c4cc(Cl)c(C(C)(C)C)cc34)n2[C@@H]2C[C@@H](C)N(CC(F)F)C2)C1` [US12065430, Example 126]: it took 4 nM to reach half-maximal inhibition (IC50).
